{"source": "paper PMC6298744", "about": "(Biochemical pharmacology, 2018)", "key": {"human 5-HT1A receptor": {"biological_target": "T1, human 5-HT1A receptor (Homo sapiens, UniProt P08908)", "T1 sequence (P08908 1-422)": "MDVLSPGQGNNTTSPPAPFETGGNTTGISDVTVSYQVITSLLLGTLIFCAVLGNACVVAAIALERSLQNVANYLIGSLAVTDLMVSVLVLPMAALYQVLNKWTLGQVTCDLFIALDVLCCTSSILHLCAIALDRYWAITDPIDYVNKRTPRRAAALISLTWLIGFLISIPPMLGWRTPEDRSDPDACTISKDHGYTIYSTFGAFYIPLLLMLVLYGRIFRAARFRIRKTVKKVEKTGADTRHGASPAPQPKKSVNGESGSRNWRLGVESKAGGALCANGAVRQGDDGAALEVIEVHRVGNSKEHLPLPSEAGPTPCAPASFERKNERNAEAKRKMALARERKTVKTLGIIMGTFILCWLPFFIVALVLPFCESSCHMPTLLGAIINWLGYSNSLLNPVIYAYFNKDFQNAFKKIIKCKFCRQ", "assay": "5-HT1A receptor [^35S]GTPγS binding stimulation", "type": "biochemical"}, "hDAT [1]": {"biological_target": "T2, hDAT (Homo sapiens, UniProt Q01959)", "T2 sequence (Q01959 whole entry)": "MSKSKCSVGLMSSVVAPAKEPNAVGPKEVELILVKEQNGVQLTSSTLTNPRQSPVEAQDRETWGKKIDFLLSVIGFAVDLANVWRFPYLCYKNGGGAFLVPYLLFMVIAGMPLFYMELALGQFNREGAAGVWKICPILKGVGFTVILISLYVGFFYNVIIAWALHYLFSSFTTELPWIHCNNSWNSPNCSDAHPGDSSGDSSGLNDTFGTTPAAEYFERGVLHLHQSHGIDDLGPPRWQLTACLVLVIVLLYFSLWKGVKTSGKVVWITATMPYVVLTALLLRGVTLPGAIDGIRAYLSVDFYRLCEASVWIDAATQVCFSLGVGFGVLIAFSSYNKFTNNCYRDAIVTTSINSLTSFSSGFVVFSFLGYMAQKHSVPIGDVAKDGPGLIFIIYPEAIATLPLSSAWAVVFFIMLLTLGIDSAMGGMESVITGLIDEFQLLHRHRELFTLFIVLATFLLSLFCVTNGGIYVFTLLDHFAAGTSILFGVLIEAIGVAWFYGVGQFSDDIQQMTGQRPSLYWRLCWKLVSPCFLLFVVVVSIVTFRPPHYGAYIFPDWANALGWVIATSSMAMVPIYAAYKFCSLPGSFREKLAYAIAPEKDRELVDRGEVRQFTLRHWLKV", "assay": "Release of preloaded [^3H]DA from HEK-hDAT cells", "type": "cell-based"}, "5-HT2C receptor [2]": {"biological_target": "T3, 5-HT2C receptor (Homo sapiens, UniProt P28335)", "T3 sequence (P28335 33-458)": "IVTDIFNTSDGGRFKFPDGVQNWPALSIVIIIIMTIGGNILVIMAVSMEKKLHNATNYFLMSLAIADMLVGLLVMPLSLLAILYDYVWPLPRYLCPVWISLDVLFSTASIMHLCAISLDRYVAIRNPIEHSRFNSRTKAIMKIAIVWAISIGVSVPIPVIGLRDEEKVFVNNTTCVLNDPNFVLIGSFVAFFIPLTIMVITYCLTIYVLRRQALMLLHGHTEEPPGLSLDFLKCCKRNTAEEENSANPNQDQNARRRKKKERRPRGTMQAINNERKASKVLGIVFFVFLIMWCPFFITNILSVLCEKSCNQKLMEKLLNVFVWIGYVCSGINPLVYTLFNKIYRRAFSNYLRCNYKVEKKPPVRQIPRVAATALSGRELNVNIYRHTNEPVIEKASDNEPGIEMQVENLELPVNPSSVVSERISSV", "assay": "cell-based"}, "5-HT2A receptor [3]": {"biological_target": "T4, 5-HT2A receptor (Homo sapiens, UniProt P28223)", "T4 sequence (P28223 whole entry)": "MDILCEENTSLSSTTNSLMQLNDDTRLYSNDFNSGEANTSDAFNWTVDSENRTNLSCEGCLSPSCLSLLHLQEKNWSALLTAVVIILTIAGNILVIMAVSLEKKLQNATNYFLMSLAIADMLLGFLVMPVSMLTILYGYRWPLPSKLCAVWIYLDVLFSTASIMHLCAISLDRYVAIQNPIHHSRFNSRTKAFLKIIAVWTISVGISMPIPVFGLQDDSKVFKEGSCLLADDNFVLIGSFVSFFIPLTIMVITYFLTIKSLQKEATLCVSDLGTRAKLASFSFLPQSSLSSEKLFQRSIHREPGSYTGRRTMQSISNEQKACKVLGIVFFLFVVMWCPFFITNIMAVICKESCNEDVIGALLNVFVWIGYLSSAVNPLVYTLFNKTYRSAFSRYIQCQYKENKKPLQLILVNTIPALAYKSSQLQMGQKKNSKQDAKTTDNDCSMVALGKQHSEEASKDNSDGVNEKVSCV", "assay": "cell-based", "type": "cell-based"}, "5-HT2B receptor [4]": {"biological_target": "T5, 5-HT2B receptor (Homo sapiens, UniProt P41595)", "T5 sequence (P41595 whole entry)": "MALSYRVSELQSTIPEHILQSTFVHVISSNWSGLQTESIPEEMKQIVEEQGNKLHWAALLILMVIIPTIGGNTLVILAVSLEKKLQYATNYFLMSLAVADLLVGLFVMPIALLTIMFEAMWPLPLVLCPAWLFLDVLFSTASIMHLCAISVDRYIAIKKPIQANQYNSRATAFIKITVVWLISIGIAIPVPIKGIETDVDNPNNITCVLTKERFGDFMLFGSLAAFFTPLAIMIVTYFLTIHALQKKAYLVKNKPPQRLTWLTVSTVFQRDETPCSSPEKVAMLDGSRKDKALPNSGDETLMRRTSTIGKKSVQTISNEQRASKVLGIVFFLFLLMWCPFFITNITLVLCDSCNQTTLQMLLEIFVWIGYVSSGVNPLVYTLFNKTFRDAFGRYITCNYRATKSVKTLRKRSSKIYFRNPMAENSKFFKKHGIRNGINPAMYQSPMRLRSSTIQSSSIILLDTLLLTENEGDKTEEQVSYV", "assay": "5-HT2B receptor [^3H]5-HT binding"}, "hSERT [5]": {"biological_target": "T6, hSERT (Homo sapiens, UniProt P31645)", "T6 sequence (P31645 whole entry)": "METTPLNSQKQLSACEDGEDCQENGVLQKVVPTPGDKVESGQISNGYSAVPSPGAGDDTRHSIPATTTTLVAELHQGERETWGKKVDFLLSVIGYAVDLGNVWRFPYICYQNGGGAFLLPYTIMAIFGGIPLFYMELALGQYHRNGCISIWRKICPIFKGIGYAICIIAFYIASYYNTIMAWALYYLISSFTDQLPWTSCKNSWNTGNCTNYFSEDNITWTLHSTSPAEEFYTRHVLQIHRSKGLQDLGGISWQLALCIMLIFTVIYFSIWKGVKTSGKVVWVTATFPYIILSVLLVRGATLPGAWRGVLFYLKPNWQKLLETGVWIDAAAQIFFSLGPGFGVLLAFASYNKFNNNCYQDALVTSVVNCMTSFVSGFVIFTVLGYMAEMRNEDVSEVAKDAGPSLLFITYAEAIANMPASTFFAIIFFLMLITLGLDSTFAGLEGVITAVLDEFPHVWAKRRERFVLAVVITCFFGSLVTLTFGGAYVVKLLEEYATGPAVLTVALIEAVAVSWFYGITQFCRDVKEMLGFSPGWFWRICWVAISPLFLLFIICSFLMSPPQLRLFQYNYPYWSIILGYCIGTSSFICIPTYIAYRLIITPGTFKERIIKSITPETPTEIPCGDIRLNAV", "assay": "Inhibition of [^125I]RTI-55 binding to hSERT"}, "hNET [6]": {"biological_target": "T7, hNET (Homo sapiens, UniProt P23975)", "T7 sequence (P23975 whole entry)": "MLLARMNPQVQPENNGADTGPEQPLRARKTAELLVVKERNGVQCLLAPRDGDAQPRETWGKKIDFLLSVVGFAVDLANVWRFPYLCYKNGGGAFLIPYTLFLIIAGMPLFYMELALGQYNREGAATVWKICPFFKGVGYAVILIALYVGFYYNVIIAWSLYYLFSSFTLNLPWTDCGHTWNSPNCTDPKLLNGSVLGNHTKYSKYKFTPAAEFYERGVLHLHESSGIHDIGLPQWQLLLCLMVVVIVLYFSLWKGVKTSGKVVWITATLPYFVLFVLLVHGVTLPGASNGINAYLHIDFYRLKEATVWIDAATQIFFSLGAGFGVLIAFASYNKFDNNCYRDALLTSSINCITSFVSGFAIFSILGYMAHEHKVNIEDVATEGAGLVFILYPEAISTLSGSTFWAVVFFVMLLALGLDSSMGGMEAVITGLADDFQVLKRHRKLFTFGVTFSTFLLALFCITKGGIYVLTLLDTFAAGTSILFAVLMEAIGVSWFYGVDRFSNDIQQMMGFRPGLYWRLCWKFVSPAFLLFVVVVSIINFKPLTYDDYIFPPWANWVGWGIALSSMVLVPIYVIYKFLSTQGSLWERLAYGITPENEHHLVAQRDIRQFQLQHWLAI", "assay": "biochemical", "type": "binding"}, "5-HT2B receptor [7]": {"biological_target": "T5, 5-HT2B receptor", "assay": "5-HT2B receptor inositol monophosphate", "type": "cell-based"}, "hSERT [8]": {"biological_target": "T6, hSERT", "assay": "Release of preloaded [^3H]5-HT from HEK-hSERT cells", "type": "cell-based"}, "hDAT [9]": {"biological_target": "T2, hDAT", "assay": "Inhibition of [^3H]DA uptake by HEK-hDAT cells", "type": "cell-based"}, "hDAT [10]": {"biological_target": "T2, hDAT", "assay": "Inhibition of [^125I]RTI-55 binding to hDAT"}, "hNET [11]": {"biological_target": "T7, hNET", "assay": "Release of preloaded [^3H]NE from HEK-hNET cells", "type": "cell-based"}, "hSERT [12]": {"biological_target": "T6, hSERT", "assay": "Inhibition of [^3H]5-HT uptake by HEK-hSERT cells", "type": "cell-based"}, "[13]": {"assay": "Human blood concentrations after ingestion", "settings": "converted from cited ng/ml values"}, "hNET [14]": {"biological_target": "T7, hNET", "assay": "cell-based"}, "5-HT2A receptor [15]": {"biological_target": "T4, 5-HT2A receptor", "assay": "biochemical", "type": "binding"}, "[16]": {"settings": "taken hours after ingestion; cited from earlier work"}, "[17]": {"settings": "cited from earlier work"}, "5-HT2C receptor [18]": {"biological_target": "T3, 5-HT2C receptor", "settings": "read-out: affinity of [^125I]DOI binding sites, h5-HT2C; HEK-5-HT2C; radioligand affinity"}, "hNET [19]": {"biological_target": "T7, hNET", "settings": "read-out: affinity of [^125I]RTI-55 binding sites, NET; HEK-hNET; cited from earlier work"}, "hDAT [20]": {"biological_target": "T2, hDAT", "settings": "read-out: affinity of [^125I]RTI-55 binding sites, DAT; HEK-hDAT; cited from earlier work"}}, "data": [{"smiles": "COc1ccc(OC)c(CCNCc2ccccc2OC)c1", "note": "[25H-NBOMe, 2-(2,5-dimethoxyphenyl)-N-(2-methoxybenzyl)ethanamine]", "values": [{"measurement": "EC50", "setting": "human 5-HT1A receptor", "value": "28.4 ± 8.6", "unit": "µM"}, {"measurement": "Emax", "setting": "human 5-HT1A receptor; read-out: % maximum stimulation, 5-HT1A stimulation of [^35S]GTPγS binding", "value": 52, "unit": "%"}, {"measurement": "EC50", "setting": "hDAT [1]", "value": "> 100", "unit": "µM"}, {"measurement": "% maximum release, hDAT [^3H]DA", "setting": "hDAT [1]; relative to maximum release induced by METH (1–10 μM)", "value": "−0.18 ± 0.26", "unit": "%"}, {"measurement": "EC50", "setting": "5-HT2C receptor [2]", "value": "0.0138 ± 0.0026", "unit": "µM"}, {"measurement": "Emax", "setting": "5-HT2C receptor [2]; read-out: % maximum stimulation, 5-HT2C stimulation of IP-1 formation", "value": 95.5, "unit": "%"}, {"measurement": "EC50", "setting": "5-HT2A receptor [3]; EC50, 5-HT2A stimulation of IP-1 formation, mean ± sem", "value": "0.0407 ± 0.0081", "unit": "µM"}, {"measurement": "Selectivity (functional ratios) 5-HT2A: 5-HT1A", "setting": "5-HT2A receptor [3]; ratio of EC50 values", "value": 700}, {"measurement": "Selectivity (functional ratios) 5-HT2A: 5-HT2B", "setting": "5-HT2A receptor [3]; ratio of EC50 values", "value": 11}, {"measurement": "Selectivity (functional ratios) 5-HT2A: 5-HT2C", "setting": "5-HT2A receptor [3]; ratio of EC50 values", "value": 0.34}, {"measurement": "Emax", "setting": "5-HT2A receptor [3]; read-out: % maximum stimulation, 5-HT2A stimulation of IP-1 formation", "value": 85.9, "unit": "%"}, {"measurement": "Ki", "setting": "5-HT2B receptor [4]", "value": "0.0629 ± 0.0075", "unit": "µM"}, {"measurement": "Ki", "setting": "hSERT [5]", "value": "2.22 ± 0.34", "unit": "µM"}, {"measurement": "Ki", "setting": "hNET [6]", "value": "16.3 ± 2.6", "unit": "µM"}, {"measurement": "EC50", "setting": "5-HT2B receptor [7]", "value": "0.463 ± 0.071", "unit": "µM"}, {"measurement": "Emax", "setting": "5-HT2B receptor [7]; read-out: % maximum stimulation, 5-HT2B stimulation of IP-1 formation", "value": 37.7, "unit": "%"}, {"measurement": "EC50", "setting": "hSERT [8]", "value": "> 100", "unit": "µM"}, {"measurement": "% maximum release, hSERT [^3H]5-HT", "setting": "hSERT [8]; relative to maximum release induced by METH (0.3–1 mM)", "value": "−0.27 ± 0.49", "unit": "%"}, {"measurement": "IC50", "setting": "hDAT [9]", "value": "> 100", "unit": "µM"}, {"measurement": "Ki", "setting": "hDAT [10]", "value": "81.4 ± 8.9", "unit": "µM"}, {"measurement": "EC50", "setting": "hNET [11]", "value": "> 66", "unit": "µM"}, {"measurement": "% maximum release, hNET [^3H]NE", "setting": "hNET [11]; relative to maximum release induced by METH (0.3–1 μM)", "value": "21 ± 12", "unit": "%"}, {"measurement": "IC50", "setting": "hSERT [12]", "value": "2.08 ± 0.31", "unit": "µM"}, {"measurement": "blood concentration (molar)", "setting": "[13]", "value": "~ 0.9 nM"}, {"measurement": "IC50", "setting": "hNET [14]", "value": "3.65 ± 0.88", "unit": "µM"}, {"measurement": "Ki", "setting": "5-HT2A receptor [15]", "value": "0.0049 ± 0.0013", "unit": "µM"}, {"measurement": "Selectivity (binding ratios) 5-HT2A : 5-HT1A", "setting": "5-HT2A receptor [15]; ratio of Ki values", "value": 920}, {"measurement": "Selectivity (binding ratios) 5-HT2A : 5-HT2B", "setting": "5-HT2A receptor [15]; ratio of Ki values", "value": 13}, {"measurement": "Selectivity (binding ratios) 5-HT2A : 5-HT2C", "setting": "5-HT2A receptor [15]; ratio of Ki values", "value": 3.3}, {"measurement": "Human blood concentration", "setting": "[16]", "value": 0.29, "unit": "ng/mL"}]}, {"smiles": "COc1cc(CCNCc2ccccc2OC)c(OC)cc1I", "note": "[25I-NBOMe]", "values": [{"measurement": "Postmortem brain tissue concentration", "setting": "[17]", "value": 2.54, "unit": "ng/g"}, {"measurement": "Postmortem peripheral blood concentration", "setting": "[17]", "value": 0.405, "unit": "ng/mL"}, {"measurement": "blood concentration (molar)", "setting": "[13]", "value": "~ 8 nM"}]}, {"smiles": "COc1cc(CC(C)N)c(OC)cc1I", "note": "(stereo not drawn) [[^125I]DOI, [^125I]2,5-dimethoxy-4-iodoamphetamine]", "values": [{"measurement": "Kd", "setting": "5-HT2C receptor [18]", "value": 0.00418, "unit": "µM"}]}, {"smiles": "COC(=O)[C@H]1[C@@H](c2ccc(I)cc2)CC2CC[C@H]1N2C", "note": "[[^125I]RTI-55, [^125I]methyl (1R,2S,3S)-3-(4-iodophenyl)-8-methyl-8-azabicyclo[3.2.1]octane-2-carboxylate]", "values": [{"measurement": "Kd", "setting": "hNET [19]", "value": 0.0121, "unit": "µM"}, {"measurement": "Kd", "setting": "hDAT [20]", "value": 0.00183, "unit": "µM"}]}]}
